Reference: patent publication US10196424B2, “Oral peptide inhibitors of interleukin-23 receptor and their use to treat inflammatory bowel diseases” (Protagonist Therapeutics, Inc., priority 2014, dated 2019)

System: DSS-induced colitis in Sprague Dawley rats
Assay: Rat colitis model: 9 days of 3% DSS-containing drinking water
Type: in vivo
Details: 100 mg/kg PO, QD
Method: Rat Colitis Model: 9 Days of 3% DSS-Containing Drinking Water
In this model, colitis was induced in SD rats by 9 days of ad lib exposure to drinking water containing 3% DSS. The disease activity index (DAI) score and ratio of colon weight:colon length were compared between three study groups (n=6 rats/group): vehicle, 3% DSS, and 3% DSS with positive control (sulfasalazine administered at 100 mg/kg PO, QD).
Acute colitis was induced by feeding female Sprague Dawley rats with 3% (wt/vol) DSS dissolved in drinking water. […] A neutralizing anti-IL-23p19 antibody was used as a comparator, and was administered intraperitoneally at 4 mg/kg on the same day and fifth day after starting DSS. […] At necropsy, the entire colon was removed from the cecum to the rectum. The colon was measured for length, flushed with PBS to remove feces, weighed, and opened longitudinally to determine macroscopic score.
Statistical analysis for significance was compared to the vehicle treated group and was determined using Student's T-test (GraphPad Prism). Differences were noted as significant *p≤0.05, **p≤0.01, ***p≤0.001, ****p≤0.0001.

## O=C(O)c1cc(/N=N/c2ccc(S(=O)(=O)Nc3ccccn3)cc2)ccc1O [sulfasalazine]
3% DSS rats with and without treatment
  terminal ratio of colon weight:colon length: significant
3% DSS rats, compared to DSS alone, from Day 5
  disease activity index (DAI) score: attenuated the disease score
